From patent US12552812B2, “Pyridone multiple-membered ring derivatives and use thereof” (priority 2021, dated 2026)
Where two headings read alike, the source gives them in different places.

What was measured:
[1] = tested on: influenza virus A/PR/8/34 (H1N1); experiment: Influenza virus cytopathic effect (CPE) assay in MDCK cells; assay type: cell-based; details: 120 h, 5 days, CCK8
in vitro [2] = assay type: in vitro ADME; details: 2 μM, 37° C., 4 hours, read-out: Plasma protein binding (PPB) unbound (%)
Description: (§1) Experimental purpose: To evaluate the protein binding rate of the compounds of the present disclosure in the plasma of CD-1 mouse, SD rat, and human using equilibrium dialysis.
(§2) Experimental protocol: The test compounds were diluted with dialysis buffer into the plasma of the above […] to prepare samples with a final concentration of 2 μM. The samples were then added to a 96-well equilibrium dialysis device and dialyzed using phosphate buffer solution at 37° C. for 4 hours. Warfarin was used as a control compound in the experiment. The concentration of the test compounds and warfarin in the plasma and buffer was determined using LC-MS/MS.

in vitro [3] = assay type: in vitro ADME, CD-1 mouse; details: CD-1; mouse (M) plasma, 2 μM, 37° C., 4 hours; read-out: Plasma protein binding (PPB) unbound (%)
Description: as §1, §2

in vivo [4] = experiment: in vivo; design: species or system male SD rats; details: male, SD, iv, 1 mg/kg, rat, 1 mpk
Description: Experimental purpose: To investigate the plasma pharmacokinetics of the compounds of the present disclosure in male SD rats after a single intravenous injection or an oral administration.
Experimental animals: male SD rats, 6 to 8 weeks old, weighing between 200 to 300 g;
Experimental procedure: Injection administration (i.v.) was carried out with a dose of 1 mpk, at a concentration of 0.50 mg/mL, with a vehicle of 40% DMAC+40% PG+20% (20% HP-β-CD+water). Oral administration (po) was carried out with a dose of 10 mpk, at a concentration of 1 mg/mL, with a vehicle of 3% DMSO+10% solutol HS+87% water.
(§3) Sample collection: At each time point, 0.03 mL of blood samples were collected from the experimental animals through a puncture of the saphenous vein. The actual blood collection time was recorded. All blood samples were kept in commercially available 1.5 mL EDTA-K2 anticoagulant tubes. After blood sample collection, DDV was added into the plasma matrix as a stabilizer, wherein the ratio of plasma to Dichlorvos (DDV) solution was 40:1. The DDV solution was a 40 mM DDV solution in acetonitrile/water (1:1). Within half an hour, the mixture was centrifuged at 4° C. and 3000 g for 10 minutes. The supernatant plasma was aspirated, quickly placed in dry ice, and stored in a −80° C. refrigerator for LC-MS/MS analysis.
Data analysis: A non-compartmental model in Phoenix WinNonlin 6.3 pharmacokinetic software was used to process the plasma concentration data. The pharmacokinetic parameters were calculated using the linear-log trapezoidal method: Cl (apparent clearance rate), T1/2 (the time required to clear half of the compound), Cmax (peak concentration), and AUC0-last (integral area under the concentration-time curve from 0 to the last sampling time).

in vivo [5] = experiment: in vivo; design: species or system male beagle dogs; details: male, iv, 1 mg/kg, beagle dog, 1 mpk
Description: Experimental purpose: To investigate the plasma pharmacokinetics of the compounds of the present disclosure in male beagle dogs after a single intravenous injection or an oral administration.
Experimental animals: male beagle dogs, >6 months old, weighing between 6 to 12 kg.
Experimental procedure: Injection administration (i.v.) was carried out with a dose of 1 mpk, at a concentration of 1 mg/mL, with a vehicle of 10% DMAC+90% (20% HP-β-CD+water). Oral administration (po) was carried out with a dose of 10 mpk, at a concentration of 2 mg/mL, with a vehicle of 3% DMSO+10% solutol HS+87% water.
as §3, with “0.8” for “0.03”
Data analysis: A non-compartmental model in Phoenix WinNonlin 6.3 pharmacokinetic software was used to process the plasma concentration data. The pharmacokinetic parameters were calculated using the linear-log trapezoidal method: Cl, T1/2, Cmax, and AUC0-last.

[6] = tested on: influenza A virus A/PR/8/34 (H1N1); assay type: in vivo, BALB/c mice; details: for Survival rate (percentage): end of the experiment (day 14); for Maximum rate of weight loss / day N of maximum rate of weight loss: mouse, in vivo

O=C1c2c(O)c(=O)ccn2N([C@H]2c3ccc(F)c(F)c3C[Se]c3cccnc32)[C@@H]2COCCN12 [Compound 3]
EC50 [1]: 0.0028 µM | fraction unbound (in vitro [2]; SD, rat (R) plasma): 0.313 | fraction unbound (in vitro [2]; crab-eating macaque (C) plasma): 0.316 | fraction unbound (in vitro [2]; dog (D) plasma): 0.246 | fraction unbound (in vitro [2]; human (H) plasma): 0.259 | fraction unbound (in vitro [3]): 0.137 | AUC(0-t) (in vivo [4]): 0.171 µM·h | clearance (in vivo [4]): 178 mL/min/kg | half-life (in vivo [4]): 1.7 h | AUC(0-t) (in vivo [5]): 0.83 µM·h | clearance (in vivo [5]): 36.8 mL/min/kg | half-life (in vivo [5]): 3.7 h

O=C1c2c(O)c(=O)ccn2N([C@@H]2c3ccc(F)c(F)c3C[Se]c3cccnc32)[C@@H]2COCCN12 [Compound 3′]
EC50 [1]: 0.157 µM

COC(=O)OCOc1c2n(ccc1=O)N([C@H]1c3ccc(F)c(F)c3C[Se]c3cccnc31)[C@@H]1COCCN1C2=O [Compound 4]
Survival rate (percentage) [6]: 100% | Maximum rate of weight loss [6]: 7.03% | day N of maximum rate of weight loss [6]: 3 days

COC(=O)OCOc1c2n(ccc1=O)N([C@@H]1c3ccccc3[Se]Cc3c1ccc(F)c3F)[C@@H]1COCCN1C2=O [Compound 5]
Survival rate (percentage) [6]: 100% | Maximum rate of weight loss [6]: 13.77% | day N of maximum rate of weight loss [6]: 7 days
